# Source: ChEMBL document CHEMBL3132769, “Fragment growing to retain or alter the selectivity of anchored kinase hinge-binding fragments” (Medchemcomm, 2014)
# How the values were obtained:
# [1] = molecular target: T1, Mitogen-activated protein kinase 12 (Homo sapiens) (UniProt P53778); assay: Inhibition of human full length p38 gamma expressed in Escherichia coli cell assessed as substrate phosphorylation using fluorescence-labelled peptides as substrate at 0.2 uM after 90 mins by microfluidic peptide phosphorylation assay
# T1 sequence (whole entry): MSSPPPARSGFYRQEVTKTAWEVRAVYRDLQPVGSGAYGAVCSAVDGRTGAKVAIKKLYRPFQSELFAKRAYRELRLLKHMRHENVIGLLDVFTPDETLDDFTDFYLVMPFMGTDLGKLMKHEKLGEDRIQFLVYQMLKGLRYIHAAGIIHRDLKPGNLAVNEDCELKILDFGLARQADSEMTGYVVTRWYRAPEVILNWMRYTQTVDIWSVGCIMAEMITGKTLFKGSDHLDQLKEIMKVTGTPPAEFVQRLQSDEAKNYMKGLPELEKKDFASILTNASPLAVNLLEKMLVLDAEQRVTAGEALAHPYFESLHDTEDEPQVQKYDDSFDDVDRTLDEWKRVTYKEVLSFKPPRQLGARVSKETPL
# [2] = test system: Tyrosine-protein kinase ABL1 (Homo sapiens), P00519 [Q252H]; assay: Inhibition of human truncated ABL Q252H mutant expressed in baculovirus assessed as substrate phosphorylation using fluorescence-labelled peptides as substrate at 0.2 uM after 90 mins by microfluidic peptide phosphorylation assay
# [3] = molecular target: Tyrosine-protein kinase Lck (Homo sapiens) (UniProt P06239); assay: Inhibition of human full length LCK expressed in baculovirus assessed as substrate phosphorylation using fluorescence-labelled peptides as substrate at 0.2 uM after 90 mins by microfluidic peptide phosphorylation assay
# Tyrosine-protein kinase Lck (Homo sapiens), sequence (P06239 2-509 limits assumed): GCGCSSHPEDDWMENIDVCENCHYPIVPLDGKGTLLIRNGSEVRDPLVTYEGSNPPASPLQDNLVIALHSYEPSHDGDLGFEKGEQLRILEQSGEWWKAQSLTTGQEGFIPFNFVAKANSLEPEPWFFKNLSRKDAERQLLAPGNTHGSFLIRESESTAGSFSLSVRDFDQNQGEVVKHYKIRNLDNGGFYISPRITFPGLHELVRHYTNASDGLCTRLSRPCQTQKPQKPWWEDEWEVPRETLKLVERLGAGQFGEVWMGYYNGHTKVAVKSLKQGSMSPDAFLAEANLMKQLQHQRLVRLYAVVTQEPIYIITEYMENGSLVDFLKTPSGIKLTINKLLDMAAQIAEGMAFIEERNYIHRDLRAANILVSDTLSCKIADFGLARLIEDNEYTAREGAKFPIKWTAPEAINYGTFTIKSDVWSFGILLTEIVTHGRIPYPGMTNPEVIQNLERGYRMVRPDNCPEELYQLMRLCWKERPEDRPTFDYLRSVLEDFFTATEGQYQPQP
# [4] = molecular target: Mitogen-activated protein kinase 14 (Homo sapiens) (UniProt Q16539); assay: Inhibition of human truncated p38 alpha expressed in Escherichia coli cell assessed as substrate phosphorylation using fluorescence-labelled peptides as substrate at 1000 uM after 90 mins by microfluidic peptide phosphorylation assay
# Mitogen-activated protein kinase 14 (Homo sapiens), sequence (Q16539 whole entry, the tested form may be a part): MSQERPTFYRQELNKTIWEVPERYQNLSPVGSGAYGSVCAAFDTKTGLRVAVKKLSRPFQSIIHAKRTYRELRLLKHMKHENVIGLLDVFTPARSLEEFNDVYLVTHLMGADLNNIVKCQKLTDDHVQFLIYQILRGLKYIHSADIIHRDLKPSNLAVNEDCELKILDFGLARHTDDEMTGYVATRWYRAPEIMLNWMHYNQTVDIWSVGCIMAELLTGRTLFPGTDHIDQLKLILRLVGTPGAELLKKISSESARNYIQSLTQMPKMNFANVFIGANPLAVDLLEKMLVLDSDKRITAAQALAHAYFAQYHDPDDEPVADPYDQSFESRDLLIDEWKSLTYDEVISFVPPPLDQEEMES
# Homo sapiens = species on record: Homo sapiens; conditions: 0.1 uM
# Description: Inhibition of human P70S6K catalytic domain expressed in baculovirus assessed as substrate phosphorylation using fluorescence-labelled peptides as substrate at 0.1 uM after 90 mins by microfluidic peptide phosphorylation assay
# [5] = molecular target: T2, Testis-specific serine/threonine-protein kinase 1 (Homo sapiens) (UniProt Q9BXA7); conditions: 0.1 uM
# T2 sequence (whole entry): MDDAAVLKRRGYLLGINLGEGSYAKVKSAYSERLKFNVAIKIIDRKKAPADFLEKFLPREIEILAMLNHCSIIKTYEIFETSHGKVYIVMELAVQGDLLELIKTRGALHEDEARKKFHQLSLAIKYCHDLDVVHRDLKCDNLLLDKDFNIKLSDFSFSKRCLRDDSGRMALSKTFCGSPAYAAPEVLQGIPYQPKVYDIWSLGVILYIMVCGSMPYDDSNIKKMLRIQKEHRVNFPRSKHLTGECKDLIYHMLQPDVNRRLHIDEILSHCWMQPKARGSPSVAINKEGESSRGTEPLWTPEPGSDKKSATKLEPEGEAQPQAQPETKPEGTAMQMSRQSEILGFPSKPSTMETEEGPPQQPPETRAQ
# Description: Inhibition of human full length TSSK1 expressed in baculovirus assessed as substrate phosphorylation using fluorescence-labelled peptides as substrate at 0.1 uM after 90 mins by microfluidic peptide phosphorylation assay
# [6] = molecular target: T3, Serine/threonine-protein kinase 3 (Homo sapiens) (UniProt Q13188); assay: Inhibition of human full length MST2 expressed in baculovirus assessed as substrate phosphorylation using fluorescence-labelled peptides as substrate at […] after 90 mins by microfluidic peptide phosphorylation assay
# T3 sequence (whole entry): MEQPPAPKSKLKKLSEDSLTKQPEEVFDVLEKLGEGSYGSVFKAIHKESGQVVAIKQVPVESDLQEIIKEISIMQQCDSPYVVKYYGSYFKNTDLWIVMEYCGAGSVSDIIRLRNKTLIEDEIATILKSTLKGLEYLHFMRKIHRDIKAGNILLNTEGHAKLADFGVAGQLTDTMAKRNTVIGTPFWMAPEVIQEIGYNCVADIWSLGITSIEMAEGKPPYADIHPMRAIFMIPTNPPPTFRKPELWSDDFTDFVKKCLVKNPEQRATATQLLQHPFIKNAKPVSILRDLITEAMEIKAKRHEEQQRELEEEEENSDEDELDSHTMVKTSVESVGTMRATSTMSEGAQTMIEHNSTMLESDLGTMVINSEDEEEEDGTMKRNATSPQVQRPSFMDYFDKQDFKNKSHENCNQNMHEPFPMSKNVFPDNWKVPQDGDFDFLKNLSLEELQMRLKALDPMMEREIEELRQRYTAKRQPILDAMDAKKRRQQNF
# [7] = molecular target: Serine/threonine-protein kinase MARK2 (Homo sapiens) (UniProt Q7KZI7); assay: Inhibition of human full length MARK2 expressed in baculovirus assessed as substrate phosphorylation using fluorescence-labelled peptides as substrate at 420 uM after 90 mins by microfluidic peptide phosphorylation assay
# Serine/threonine-protein kinase MARK2 (Homo sapiens), sequence (Q7KZI7 whole entry): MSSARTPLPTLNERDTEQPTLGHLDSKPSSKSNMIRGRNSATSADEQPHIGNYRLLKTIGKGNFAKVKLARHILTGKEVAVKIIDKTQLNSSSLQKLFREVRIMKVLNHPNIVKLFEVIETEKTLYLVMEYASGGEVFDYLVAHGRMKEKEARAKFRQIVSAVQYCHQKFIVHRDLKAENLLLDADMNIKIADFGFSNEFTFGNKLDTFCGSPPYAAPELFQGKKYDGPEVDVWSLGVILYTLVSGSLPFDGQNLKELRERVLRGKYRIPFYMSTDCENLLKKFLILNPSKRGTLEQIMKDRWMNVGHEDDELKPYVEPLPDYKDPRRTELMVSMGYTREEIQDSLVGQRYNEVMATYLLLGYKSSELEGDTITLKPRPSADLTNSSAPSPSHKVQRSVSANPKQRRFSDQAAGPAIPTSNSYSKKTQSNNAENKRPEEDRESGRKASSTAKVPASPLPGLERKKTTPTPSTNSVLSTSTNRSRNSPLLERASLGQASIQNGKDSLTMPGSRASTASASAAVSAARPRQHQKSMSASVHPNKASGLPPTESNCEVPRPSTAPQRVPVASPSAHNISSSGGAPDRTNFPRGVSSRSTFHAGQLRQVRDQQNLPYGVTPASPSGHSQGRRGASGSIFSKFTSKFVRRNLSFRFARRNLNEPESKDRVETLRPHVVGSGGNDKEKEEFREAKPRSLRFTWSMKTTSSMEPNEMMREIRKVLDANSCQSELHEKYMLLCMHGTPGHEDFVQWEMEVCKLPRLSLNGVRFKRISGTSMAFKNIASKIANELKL
# [8] = molecular target: T4, Serine/threonine-protein kinase DCLK2 (Homo sapiens) (UniProt Q8N568); assay: Inhibition of human full length DCAMKL2 expressed in baculovirus assessed as substrate phosphorylation using fluorescence-labelled peptides as substrate at 420 uM after 90 mins by microfluidic peptide phosphorylation assay
# T4 sequence (whole entry): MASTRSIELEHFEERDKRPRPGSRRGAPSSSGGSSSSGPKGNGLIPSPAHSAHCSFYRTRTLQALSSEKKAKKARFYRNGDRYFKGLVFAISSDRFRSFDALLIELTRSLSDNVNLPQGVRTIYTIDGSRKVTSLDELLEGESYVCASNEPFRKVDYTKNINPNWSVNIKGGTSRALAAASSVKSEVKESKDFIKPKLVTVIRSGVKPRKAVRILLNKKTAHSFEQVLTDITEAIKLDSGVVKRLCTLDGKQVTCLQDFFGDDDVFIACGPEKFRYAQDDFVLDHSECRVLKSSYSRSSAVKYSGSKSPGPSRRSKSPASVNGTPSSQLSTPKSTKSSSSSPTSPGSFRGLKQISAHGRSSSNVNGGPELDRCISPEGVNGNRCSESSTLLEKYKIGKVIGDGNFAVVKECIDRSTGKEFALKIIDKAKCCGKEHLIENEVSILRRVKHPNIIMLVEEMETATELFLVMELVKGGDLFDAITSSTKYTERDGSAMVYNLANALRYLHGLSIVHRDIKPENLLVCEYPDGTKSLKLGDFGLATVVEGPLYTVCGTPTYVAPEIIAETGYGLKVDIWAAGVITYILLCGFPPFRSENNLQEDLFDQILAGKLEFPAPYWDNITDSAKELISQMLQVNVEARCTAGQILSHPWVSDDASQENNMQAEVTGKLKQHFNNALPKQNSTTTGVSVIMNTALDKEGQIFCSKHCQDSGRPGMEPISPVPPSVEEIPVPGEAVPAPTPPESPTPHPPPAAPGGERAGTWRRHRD
# [9] = test system: Fibroblast growth factor receptor 2 (Homo sapiens), P21802 [N549H]; assay: Inhibition of human FGFR2 N549H mutant catalytic domain expressed in baculovirus assessed as substrate phosphorylation using fluorescence-labelled peptides as substrate at 9 uM after 90 mins by microfluidic peptide phosphorylation assay
# Fibroblast growth factor receptor 2 (Homo sapiens), P21802 [N549H], sequence (P21802 whole entry N549H, the tested form may be a part): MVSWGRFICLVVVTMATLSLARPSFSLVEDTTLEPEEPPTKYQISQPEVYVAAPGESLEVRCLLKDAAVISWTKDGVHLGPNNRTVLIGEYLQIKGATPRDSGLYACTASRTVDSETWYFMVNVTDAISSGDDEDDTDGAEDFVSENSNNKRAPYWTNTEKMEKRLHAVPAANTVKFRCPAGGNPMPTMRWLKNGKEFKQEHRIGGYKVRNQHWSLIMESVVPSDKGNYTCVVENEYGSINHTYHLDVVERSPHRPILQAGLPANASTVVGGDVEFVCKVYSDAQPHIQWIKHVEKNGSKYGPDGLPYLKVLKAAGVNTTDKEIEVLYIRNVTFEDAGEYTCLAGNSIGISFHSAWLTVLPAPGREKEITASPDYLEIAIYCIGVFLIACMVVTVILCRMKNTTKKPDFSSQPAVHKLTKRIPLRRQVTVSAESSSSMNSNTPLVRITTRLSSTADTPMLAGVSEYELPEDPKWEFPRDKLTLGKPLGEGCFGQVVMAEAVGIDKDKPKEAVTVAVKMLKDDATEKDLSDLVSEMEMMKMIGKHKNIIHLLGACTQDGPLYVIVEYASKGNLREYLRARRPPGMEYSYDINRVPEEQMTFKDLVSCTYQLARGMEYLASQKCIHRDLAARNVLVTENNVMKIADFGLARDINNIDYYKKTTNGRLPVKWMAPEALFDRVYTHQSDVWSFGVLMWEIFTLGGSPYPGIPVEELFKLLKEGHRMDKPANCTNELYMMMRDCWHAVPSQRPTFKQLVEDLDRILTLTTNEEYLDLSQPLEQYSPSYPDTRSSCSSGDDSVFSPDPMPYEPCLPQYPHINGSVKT
# [10] = molecular target: MAP kinase-activated protein kinase 2 (Homo sapiens) (UniProt P49137); assay: Inhibition of human full length MAPKAPK2 expressed in baculovirus assessed as substrate phosphorylation using fluorescence-labelled peptides as substrate at 9 uM after 90 mins by microfluidic peptide phosphorylation assay
# MAP kinase-activated protein kinase 2 (Homo sapiens), sequence (P49137 whole entry, looked up): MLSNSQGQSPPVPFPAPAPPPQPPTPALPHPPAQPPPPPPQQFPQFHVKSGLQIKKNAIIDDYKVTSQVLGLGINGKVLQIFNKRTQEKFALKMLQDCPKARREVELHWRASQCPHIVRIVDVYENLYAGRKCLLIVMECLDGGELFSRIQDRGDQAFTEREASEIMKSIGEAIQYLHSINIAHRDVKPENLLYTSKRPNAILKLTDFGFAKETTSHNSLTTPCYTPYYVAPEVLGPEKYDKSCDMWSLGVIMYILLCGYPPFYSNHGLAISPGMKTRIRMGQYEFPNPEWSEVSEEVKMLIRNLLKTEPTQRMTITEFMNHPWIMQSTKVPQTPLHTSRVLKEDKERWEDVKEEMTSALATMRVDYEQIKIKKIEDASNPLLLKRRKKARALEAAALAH
smiles,measurement,setting,value
Clc1ccc(C2(c3ccc(-c4ncnc5[nH]cnc45)cc3)CCNCC2)cc1,inhibition,[1],5%
same,inhibition,[2],0%
same,inhibition,[3],35%
c1cnc2[nH]ccc2c1,inhibition,[4],0%
C[C@H](CN(C)C)Oc1nc(Nc2cc3cccc(Cl)c3cn2)cnc1C#N,inhibition,Homo sapiens,0%
same,inhibition,[5],0%
COC(=O)c1cnc(Nc2cnc(C#N)cn2)cc1NCC1CCNCC1,inhibition,[6],0.5%
c1nc(N2CCOCC2)c2nc[nH]c2n1,inhibition,[7],88%
same,inhibition,[8],41.5%
NCC1CN(c2ncnc3[nH]c4cnccc4c23)CCO1 (stereo unspecified),inhibition,[9],47.5%
same,inhibition,[10],19.5%
